Eleven compounds from patent US20250230193A1, “CYCLIC COMPOUND HAVING SELECTIVE KRAS INHIBITORY EFFECT ON HRAS AND NRAS” (CHUGAI SEIYAKU KABUSHIKI KAISHA, priority 2022, published 2025) can be followed below.

Each structure is given as a SMILES string.

Test [1] concerns the target GDP-bound NRAS wild-type protein (Homo sapiens, UniProt P01111). The experiment in a line: Binding to NRAS by surface plasmon resonance (SPR), Single Cycle Kinetics. The conditions noted are these: KD ratio, GDP-bound NRAS wild-type vs GDP-bound KRAS wild-type, SPR. A general note: SPR reads the build-up and loss of mass on a sensor chip optically.
Test [2] deals with GDP-bound HRAS wild-type protein (Homo sapiens, UniProt P01112). The experiment in a line: Binding to HRAS by surface plasmon resonance (SPR), Single Cycle Kinetics. The conditions noted are these: KD ratio, GDP-bound HRAS wild-type vs GDP-bound KRAS wild-type, SPR.
GDP-bound HRAS wild-type protein, sequence (P01112 whole entry): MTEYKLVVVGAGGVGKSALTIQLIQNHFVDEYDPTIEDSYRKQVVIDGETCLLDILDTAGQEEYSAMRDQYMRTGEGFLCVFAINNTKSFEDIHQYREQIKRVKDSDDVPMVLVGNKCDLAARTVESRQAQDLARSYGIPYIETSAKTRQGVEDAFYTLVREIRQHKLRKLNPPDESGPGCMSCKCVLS

GDP-bound NRAS wild-type protein, sequence (P01111 whole entry): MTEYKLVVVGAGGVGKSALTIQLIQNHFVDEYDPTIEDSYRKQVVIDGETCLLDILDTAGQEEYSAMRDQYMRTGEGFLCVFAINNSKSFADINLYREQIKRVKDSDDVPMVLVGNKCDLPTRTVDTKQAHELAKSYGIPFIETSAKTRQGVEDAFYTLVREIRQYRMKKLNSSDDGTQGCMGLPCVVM

As for `CCO[C@@H]1CCN2C(=O)[C@H](CCc3cc(F)c(C(F)(F)F)c(F)c3)NC(=O)CN(C)C(=O)[C@H](Cc3ccc(C(F)(F)F)cc3)N3CCCC[C@@H](C3=O)N(C)C(=O)CN(C)C(=O)[C@H]([C@@H](C)CC)NC(=O)[C@H](CC(C)C)N(C)C(=O)C[C@@H](C(=O)N3CCOCC3)N(C)C(=O)[C@H](C3CCCC3)N(C)C(=O)C3(CCC3)NC(=O)[C@H]12` [PP1079], the “NRAS/KRAS (ratio of KD value with respect to NRAS to KD value with respect to KRAS)” value in test [1] was “B (a compound having 3 or more and less than 10 is denoted as B)”. The “HRAS/KRAS (ratio of KD value with respect to HRAS to KD value with respect to KRAS)” value in test [2] is “B (a compound having 3 or more and less than 10 is denoted as B)”.

As to `CCCO[C@@H]1CCN2C(=O)[C@H](CCc3cc(F)c(C(F)(F)F)c(F)c3)NC(=O)CN(C)C(=O)[C@H](Cc3ccc(C(F)(F)F)cc3)N3CCCC[C@@H](C3=O)N(C)C(=O)CN(C)C(=O)[C@H]([C@@H](C)CC)NC(=O)[C@H](CC(C)C)N(C)C(=O)C[C@@H](C(=O)N3CCOCC3)N(C)C(=O)[C@H](C3CCCC3)N(C)C(=O)C3(CCC3)NC(=O)[C@H]12` [PP1080], in test [1], the “NRAS/KRAS (ratio of KD value with respect to NRAS to KD value with respect to KRAS)” value is “B (a compound having 3 or more and less than 10 is denoted as B)”. The “HRAS/KRAS (ratio of KD value with respect to HRAS to KD value with respect to KRAS)” value in test [2] is “B (a compound having 3 or more and less than 10 is denoted as B)”.

Regarding `CCO[C@@H]1CCN2C(=O)[C@H](CCc3cc(F)c(C(F)(F)F)c(F)c3)NC(=O)CN(C)C(=O)[C@H](Cc3ccc(C(F)(F)F)cc3)N3CCCCC[C@@H](C3=O)N(C)C(=O)CN(C)C(=O)[C@H]([C@@H](C)CC)NC(=O)[C@H](CC(C)C)N(C)C(=O)C[C@@H](C(=O)N3CCOCC3)N(C)C(=O)[C@H](C3CCCC3)N(C)C(=O)C3(CCC3)NC(=O)[C@H]12` [PP1082], in test [1], the “NRAS/KRAS (ratio of KD value with respect to NRAS to KD value with respect to KRAS)” value is “A (a compound having 10 or more and less than 20 is denoted as A)”. Moreover, the “HRAS/KRAS (ratio of KD value with respect to HRAS to KD value with respect to KRAS)” value in test [2] is “B (a compound having 3 or more and less than 10 is denoted as B)”.

On to `CCCO[C@@H]1CCN2C(=O)[C@H](CCc3cc(F)c(C(F)(F)F)c(F)c3)NC(=O)CN(C)C(=O)[C@H](Cc3ccc(C(F)(F)F)cc3)N3CCCCC[C@@H](C3=O)N(C)C(=O)CN(C)C(=O)[C@H]([C@@H](C)CC)NC(=O)[C@H](CC(C)C)N(C)C(=O)C[C@@H](C(=O)N3CCOCC3)N(C)C(=O)[C@H](C3CCCC3)N(C)C(=O)C3(CCC3)NC(=O)[C@H]12` [PP1083], for which the “NRAS/KRAS (ratio of KD value with respect to NRAS to KD value with respect to KRAS)” value in test [1] was “B (a compound having 3 or more and less than 10 is denoted as B)”. In addition, the “HRAS/KRAS (ratio of KD value with respect to HRAS to KD value with respect to KRAS)” value in test [2] is “B (a compound having 3 or more and less than 10 is denoted as B)”.

On to `CC[C@H](C)[C@@H]1NC(=O)[C@H](CC(C)C)N(C)C(=O)C[C@@H](C(=O)N2CCOCC2)N(C)C(=O)[C@H](C2CCCC2)N(C)C(=O)C2(CCC2)NC(=O)[C@@H]2[C@H](OC)CCN2C(=O)[C@H](CCc2cc(F)c(C(F)(F)F)c(F)c2)NC(=O)CN(C)C(=O)[C@H](Cc2ccc(C(F)(F)F)cc2)N2CCCC[C@@H](C2=O)N(C)C(=O)CN(C)C1=O` [PP1084], for which the “NRAS/KRAS (ratio of KD value with respect to NRAS to KD value with respect to KRAS)” value in test [1] was “C (A compound having a KD ratio of 0.1 or more and less than 3 is denoted as C)”. For the same compound, the “HRAS/KRAS (ratio of KD value with respect to HRAS to KD value with respect to KRAS)” value in test [2] was “B (a compound having 3 or more and less than 10 is denoted as B)”.

As for `CCO[C@@H]1C[C@H]2C(=O)NC3(CCC3)C(=O)N(C)[C@@H](C3CCCCC3)C(=O)N(C)[C@H](C(=O)N(C)C)CC(=O)N(C)[C@@H](CC)C(=O)N[C@@H]([C@@H](C)CC)C(=O)N(C)CC(=O)N(C)[C@H]3C/C=C\CCN(C3=O)[C@@H](Cc3ccc(C(F)(F)F)cc3)C(=O)N(C)CC(=O)N[C@@H](CCc3cc(F)c(C(F)(F)F)c(F)c3)C(=O)N2C1` [PP1086], the “NRAS/KRAS (ratio of KD value with respect to NRAS to KD value with respect to KRAS)” value in test [1] is recorded as “AA (a compound having 20 or more is denoted as AA)”. In test [2], the “HRAS/KRAS (ratio of KD value with respect to HRAS to KD value with respect to KRAS)” value was “A (a compound having 10 or more and less than 20 is denoted as A)”.

`CCO[C@@H]1C[C@H]2C(=O)NC3(CCC3)C(=O)N(C)[C@@H]([C@@H](C)CC)C(=O)N(C)[C@H](C(=O)N(C)C)CC(=O)N(C)[C@@H](CC)C(=O)N[C@@H]([C@@H](C)CC)C(=O)N(C)CC(=O)N(C)[C@H]3C/C=C\CCN(C3=O)[C@@H](Cc3ccc(C(F)(F)F)cc3)C(=O)N(C)CC(=O)N[C@@H](CCc3cc(F)c(C(F)(F)F)c(F)c3)C(=O)N2C1` [PP1087]: the “NRAS/KRAS (ratio of KD value with respect to NRAS to KD value with respect to KRAS)” value in test [1] was “A (a compound having 10 or more and less than 20 is denoted as A)”. In addition, the “HRAS/KRAS (ratio of KD value with respect to HRAS to KD value with respect to KRAS)” value in test [2] is “A (a compound having 10 or more and less than 20 is denoted as A)”.

On to `CCO[C@@H]1C[C@H]2C(=O)NC3(CCC3)C(=O)N(C)[C@@H](C(C)C)C(=O)N(C)[C@H](C(=O)N(C)C)CC(=O)N(C)[C@@H](CC)C(=O)N[C@@H]([C@@H](C)CC)C(=O)N(C)CC(=O)N(C)[C@H]3C/C=C\CCN(C3=O)[C@@H](Cc3ccc(C(F)(F)F)cc3)C(=O)N(C)CC(=O)N[C@@H](CCc3cc(F)c(C(F)(F)F)c(F)c3)C(=O)N2C1` [PP1088], for which the “NRAS/KRAS (ratio of KD value with respect to NRAS to KD value with respect to KRAS)” value in test [1] was “A (a compound having 10 or more and less than 20 is denoted as A)”. In addition, the “HRAS/KRAS (ratio of KD value with respect to HRAS to KD value with respect to KRAS)” value in test [2] was “A (a compound having 10 or more and less than 20 is denoted as A)”.

Take `CCO[C@@H]1C[C@H]2C(=O)NC3(CCC3)C(=O)N(C)[C@@H](CC(C)C)C(=O)N(C)[C@H](C(=O)N(C)C)CC(=O)N(C)[C@@H](CC)C(=O)N[C@@H]([C@@H](C)CC)C(=O)N(C)CC(=O)N(C)[C@H]3C/C=C\CCN(C3=O)[C@@H](Cc3ccc(C(F)(F)F)cc3)C(=O)N(C)CC(=O)N[C@@H](CCc3cc(F)c(C(F)(F)F)c(F)c3)C(=O)N2C1` [PP1089]: the “NRAS/KRAS (ratio of KD value with respect to NRAS to KD value with respect to KRAS)” value in test [1] is “AA (a compound having 20 or more is denoted as AA)”. In test [2], the “HRAS/KRAS (ratio of KD value with respect to HRAS to KD value with respect to KRAS)” value is “A (a compound having 10 or more and less than 20 is denoted as A)”.

Turning to `CCO[C@@H]1C[C@H]2C(=O)NC3(CCC3)C(=O)N(C)[C@@H](C3CCCC3)C(=O)N(C)[C@H](C(=O)N3CCCC3)CC(=O)N(C)[C@@H](CC)C(=O)N[C@@H]([C@@H](C)CC)C(=O)N(C)CC(=O)N(C)[C@H]3C/C=C\CCN(C3=O)[C@@H](Cc3ccc(C(F)(F)F)cc3)C(=O)N(C)CC(=O)N[C@@H](CCc3cc(F)c(C(F)(F)F)c(F)c3)C(=O)N2C1` [PP1090], the “NRAS/KRAS (ratio of KD value with respect to NRAS to KD value with respect to KRAS)” value in test [1] was “AA (a compound having 20 or more is denoted as AA)”. For the same compound, the “HRAS/KRAS (ratio of KD value with respect to HRAS to KD value with respect to KRAS)” value in test [2] was “A (a compound having 10 or more and less than 20 is denoted as A)”.

Regarding `CCO[C@@H]1C[C@H]2C(=O)NC3(CCC3)C(=O)N(C)[C@@H](C3CCCC3)C(=O)N(C)[C@H](C(=O)N3CCC3)CC(=O)N(C)[C@@H](CC)C(=O)N[C@@H]([C@@H](C)CC)C(=O)N(C)CC(=O)N(C)[C@H]3C/C=C\CCN(C3=O)[C@@H](Cc3ccc(C(F)(F)F)cc3)C(=O)N(C)CC(=O)N[C@@H](CCc3cc(F)c(C(F)(F)F)c(F)c3)C(=O)N2C1` [PP1091], the “NRAS/KRAS (ratio of KD value with respect to NRAS to KD value with respect to KRAS)” value in test [1] is “A (a compound having 10 or more and less than 20 is denoted as A)”. Further, the “HRAS/KRAS (ratio of KD value with respect to HRAS to KD value with respect to KRAS)” value in test [2] was “B (a compound having 3 or more and less than 10 is denoted as B)”.
